Publication PMC11212140, “Molecular Bidents with Two Electrophilic Warheads as a New Pharmacological Modality” (ACS Central Science, 2024)

What was measured:
Experiment in all cases: KiNativ profiling in H3255 cells
Assay type in all cases: cell-based, human
[1] = tested on: T1, JAK1 domain2; details: 2.5 µM
T1 construct: JAK1 domain2; purchased ActivX Biosciences (KiNativ)

[2] = tested on: RSK1 domain1, RSK2 domain1, RSK3 domain1; details: 2.5 µM; Lys2; DLKPENILLDEEGHIK
Protocol: (§1) H3255 cells were plated with 6.5x10^6 per condition in fresh media in 15 cm plates and treated the 80% confluency for 2 hours with DMSO or 2.5 μM of ZNL-0056. To harvest cells, plates were washed 3 times with cold PBS, then collected by scraping into 4 mL of cold PBS containing protease and phosphatase inhibitors. Cells were pelleted by centrifugation at 1350 g at 4 ℃ for 5 minutes and immediately frozen in liquid nitrogen. The frozen samples were sent to ActivX Biosciences (La Jolla, CA) for the remainder of the KiNativ profiling experiment4. […]

[3] = tested on: T2, LYN; details: 2.5 µM
T2 construct: purchased ActivX Biosciences (KiNativ)
Protocol: as §1

[4] = tested on: ABL, ARG; details: 2.5 µM
Protocol: as §1

[5] = tested on: T3, PEK; details: 2.5 µM; Lys2; DLKPSNIFFTMDDVVK
T3 construct: purchased ActivX Biosciences (KiNativ)
Protocol: as §1

[6] = tested on: T4, ZC2/TNIK; details: 2.5 µM; Lys1; TGQLAAIKVMDVTGDEEEEIKQEINMLKK
T4 construct: purchased ActivX Biosciences (KiNativ)
Protocol: as §1

[7] = tested on: T5, NDR1; details: 2.5 µM
T5 construct: purchased ActivX Biosciences (KiNativ)
Protocol: as §1

[8] = tested on: T6, eEF2K; details: 2.5 µM; ATP; YIKYNSNSGFVR
T6 construct: purchased ActivX Biosciences (KiNativ)
Protocol: as §1

[9] = tested on: MER, TYRO3; details: 2.5 µM; Activation Loop; KIYSGDYYR
Protocol: as §1

[10] = tested on: T7, TLK2; details: 2.5 µM
T7 construct: purchased ActivX Biosciences (KiNativ)
Protocol: as §1

[11] = tested on: MAPKAPK2, MAPKAPK3; details: 2.5 µM; Lys2; DVKPENLLYTSK
Protocol: as §1

[12] = tested on: T8, SRPK2; details: 2.5 µM; Lys2; IIHTDIKPENILMCVDDAYVR
T8 construct: purchased ActivX Biosciences (KiNativ)
Protocol: as §1

[13] = tested on: T9, FER; details: 2.5 µM
T9 construct: purchased ActivX Biosciences (KiNativ)
Protocol: as §1

[14] = tested on: T10, BRAF, BRAF V600E; details: 2.5 µM; Lys2; DLKSNNIFLHEDLTVK
T10 construct: purchased ActivX Biosciences (KiNativ)
Protocol: as §1

[15] = tested on: T11, MAP3K1; details: 2.5 µM; Lys2; DVKGANLLIDSTGQR
T11 construct: purchased ActivX Biosciences (KiNativ)
Protocol: as §1

[16] = tested on: T12, TLK1; details: 2.5 µM
T12 construct: purchased ActivX Biosciences (KiNativ)
Protocol: as §1

[17] = tested on: T13, NEK7; details: 2.5 µM; Lys1; AACLLDGVPVALKK
T13 construct: purchased ActivX Biosciences (KiNativ)
Protocol: as §1

[18] = tested on: T14, CASK; details: 2.5 µM; Lys1; ETGQQFAVKIVDVAK
T14 construct: purchased ActivX Biosciences (KiNativ)
Protocol: as §1

[19] = tested on: p38d, p38g; details: 2.5 µM; Lys2; DLKPGNLAVNEDCELK
Protocol: as §1

[20] = tested on: T15, PHKg2; details: 2.5 µM; Lys1; ATGHEFAVKIMEVTAER
T15 construct: purchased ActivX Biosciences (KiNativ)
Protocol: as §1

[21] = tested on: T16, SRPK1; details: 2.5 µM; Lys2; IIHTDIKPENILLSVNEQYIR
T16 construct: purchased ActivX Biosciences (KiNativ)
Protocol: as §1

[22] = tested on: T17, CaMK1d; details: 2.5 µM
T17 construct: purchased ActivX Biosciences (KiNativ)
Protocol: as §1

[23] = tested on: T18, EphA1; details: 2.5 µM; Activation Loop; LLDDFDGTYETQGGKIPIR
T18 construct: purchased ActivX Biosciences (KiNativ)
Protocol: as §1

[24] = tested on: T19, ULK3; details: 2.5 µM; Lys1; EVVAIKCVAK
T19 construct: purchased ActivX Biosciences (KiNativ)
Protocol: as §1

[25] = tested on: T20, NEK4; details: 2.5 µM; Lys2; DLKTQNVFLTR
T20 construct: purchased ActivX Biosciences (KiNativ)
Protocol: as §1

[26] = tested on: PI4KA, PI4KAP2; details: 2.5 µM; ATP; SGTPMQSAAKAPYLAK
Protocol: as §1

[27] = tested on: NEK6, NEK7; details: 2.5 µM; Lys2; DIKPANVFITATGVVK
Protocol: as §1

[28] = tested on: T21, CK2a1; details: 2.5 µM; Protein Kinase Domain; GGPNIITLADIVKDPVSR
T21 construct: purchased ActivX Biosciences (KiNativ)
Protocol: as §1

[29] = tested on: T22, NEK1; details: 2.5 µM; Lys2; DIKSQNIFLTK
T22 construct: purchased ActivX Biosciences (KiNativ)
Protocol: as §1

[30] = tested on: ZC1/HGK, ZC2/TNIK, ZC3/MINK; details: 2.5 µM; Lys2; DIKGQNVLLTENAEVK
Protocol: as §1

[31] = tested on: T23, Erk2; details: 2.5 µM; Lys2; DLKPSNLLLNTTCDLK
T23 construct: purchased ActivX Biosciences (KiNativ)
Protocol: as §1

[32] = Activation Loop, IGDFGLTKAIETDKEYYTVK
[33] = Lys1, YDPEGDNTGEQVAVKSLKPESGGNHIADLKK
[34] = Activation Loop, EGAKFPIKWTAPEAINFGCFTIK
[35] = Activation Loop, LMTGDTYTAHAGAKFPIK
[36] = Lys2, YLNEIKPPIIHYDLKPGNILLVNGTACGEIK
[37] = Activation Loop, QEDGGVYSSSGLKQIPIK
[38] = Lys2, YLNEIKPPIIHYDLKPGNILLVDGTACGEIK

Structure (SMILES): C=CC(=O)Nc1cc(Nc2nccc(-c3cn(C)c4ccccc34)n2)c(OC)cc1N(C)CCN(C)C [Osimertinib, osimertinib, reference compound]
- Inhibition [1, 32]: -24.5%
- Inhibition [1, 33]: -22.2%
- Inhibition [2]: -33.3%
- Inhibition [3, 34]: 7.2%
- Inhibition ([3]; Lys1, VAVKTLKPGTMSVQAFLEEANLMK): -3.5%
- Inhibition [4, 35]: 8.4%
- Inhibition ([4]; Lys1, YSLTVAVKTLKEDTMEVEEFLK): 4.3%
- Inhibition [5]: 7.8%
- Inhibition [6]: 19.5%
- Inhibition ([7]; Lys1, DTGHVYAMKILR): -7.9%
- Inhibition ([7]; Lys2, DIKPDNLLLDSK): 12.0%
- Inhibition [8]: -9.7%
- Inhibition [9]: 33.0%
- Inhibition ([10]; Lys1, YVAVKIHQLNK): 25.0%
- Inhibition [10, 36]: 3.9%
- Inhibition [11]: -28.4%
- Inhibition [12]: -2.3%
- Inhibition [13, 37]: 28.7%
- Inhibition ([13]; Lys1, TSVAVKTCKEDLPQELK): -15.4%
- Inhibition [14]: -9.2%
- Inhibition [15]: 8.4%
- Inhibition ([16]; Lys1, YAAVKIHQLNK): -53.3%
- Inhibition [16, 38]: 7.2%
- Inhibition [17]: -12.2%
- Inhibition [18]: 6.8%
- Inhibition [19]: 11.1%
- Inhibition [20]: -24.7%
- Inhibition [21]: 2.2%
- Inhibition ([22]; Lys1, LFAVKCIPK): -14.3%
- Inhibition ([22]; Lys2, DLKPENLLYYSQDEESK): -8.2%
- Inhibition [23]: 5.8%
- Inhibition [24]: -21.6%
- Inhibition [25]: -12.6%
- Inhibition [26]: 30.1%
- Inhibition [27]: -8.8%
- Inhibition [28]: -0.558%
- Inhibition [29]: -34.8%
- Inhibition [30]: 16.3%
- Inhibition [31]: 1.9%

Structure (SMILES): C=CC(=O)Nc1cc(C(=O)Nc2nc3cccc(C)c3n2[C@@H]2CCCCN(C(=O)C=C)C2)cs1 [ZNL-0056]
- Inhibition [1, 32]: 4.7%
- Inhibition [1, 33]: 4.4%
- Inhibition [2]: -1.0%
- Inhibition [3, 34]: -13.3%
- Inhibition ([3]; Lys1, VAVKTLKPGTMSVQAFLEEANLMK): -8.7%
- Inhibition [4, 35]: -3.8%
- Inhibition ([4]; Lys1, YSLTVAVKTLKEDTMEVEEFLK): 17.1%
- Inhibition [5]: -15.1%
- Inhibition [6]: 32.8%
- Inhibition ([7]; Lys1, DTGHVYAMKILR): 6.1%
- Inhibition ([7]; Lys2, DIKPDNLLLDSK): 5.7%
- Inhibition [8]: -31.5%
- Inhibition [9]: 2.6%
- Inhibition ([10]; Lys1, YVAVKIHQLNK): 15.3%
- Inhibition [10, 36]: 18.3%
- Inhibition [11]: -7.9%
- Inhibition [12]: 10.0%
- Inhibition [13, 37]: -11.1%
- Inhibition ([13]; Lys1, TSVAVKTCKEDLPQELK): -6.4%
- Inhibition [14]: 4.5%
- Inhibition [15]: -17.1%
- Inhibition ([16]; Lys1, YAAVKIHQLNK): 31.3%
- Inhibition [16, 38]: 13.1%
- Inhibition [17]: -9.3%
- Inhibition [18]: -14.3%
- Inhibition [19]: -20.6%
- Inhibition [20]: -4.2%
- Inhibition [21]: 2.6%
- Inhibition ([22]; Lys1, LFAVKCIPK): 11.3%
- Inhibition ([22]; Lys2, DLKPENLLYYSQDEESK): 2.0%
- Inhibition [23]: -5.3%
- Inhibition [24]: -7.8%
- Inhibition [25]: 7.6%
- Inhibition [26]: -23.5%
- Inhibition [27]: 0.45%
- Inhibition [28]: 6.3%
- Inhibition [29]: -5.2%
- Inhibition [30]: 9.3%
- Inhibition [31]: -24.2%
